Reference: patent publication US20250145576A1, “CATHEPSIN K INHIBITOR, AND PREPARATION METHOD THEREFOR AND USE THEREOF” (SHANDONG NEW TIME PHARMACEUTICAL CO., LTD., priority 2022, published 2025)
Like-named read-outs stand apart in the source and are kept apart here.

Tests used:
Cathepsin K = Cathepsin K (Homo sapiens (Human), UniProt P43235); test: Cat K inhibitor screening kit, AFC substrate fluorescence; format: biochemical
Procedure: Reagent information: Cat K inhibitor screening kit: batch number, 6L23K01500; supplier, BiVision. Drug preparation: compounds were dissolved in DMSO and prepared into 10 mM stock solutions. When in use, the stock solutions were prepared into the required concentrations by using a buffer.
Cathepsin K (CTSK, EC 3.4.22.38) is a lysosomal cysteine protease, participates in osteoclastic bone remodeling and resorption, and can further degrade collagen, gelatin and elastin. The cathepsin K inhibitor screening kit from Biovision uses the ability of the active cathepsin K to cleave a synthetic AFC-based peptide substrate to release AFC and the AFC can be easily quantified by using a fluorometer or fluorescent microplate reader. In the presence of a specific cathepsin K specific inhibitor, the cleavage of the substrate is reduced/eliminated, resulting in a reduction or complete loss of AFC fluorescence. The simple and high-throughput adaptive assay kit can be used to screen/study/characterize a potential inhibitor of the cathepsin K.
(§1) 20 μL of a buffer, a Cat K inhibitor and test compounds (1 μM and 10 μM) were added to 96-well plates to serve as an EC well, an IC well and an S well, respectively; 50 μL of a Cat K enzyme solution was added into all the wells respectively and the mixture was incubated for 10-15 min at room temperature to establish an enzyme inhibitor complex; 30 μL of a Cat K substrate solution was added into all the wells and the mixture was incubated for 30-60 min at room temperature; and the final volume of the reaction was 100 μL.
The screening method was the same as 1.1, the concentrations of the test compounds were set between 0.1 nM and 10 μM, 4-5 concentrations were selected for detection, IC50 curves were drawn, and IC50 values were calculated.

Cathepsin S = test: Screening of Cathepsin S, fluorescence; format: biochemical; conditions: >> inhibition rate did not exceed 20% at test concentration; > greater than 35%; ≈ about 50%; < less than 50%
Procedure: as §1, with “10 μL of” for “20 μL of”, “a Cat S inhibitor and” for “a Cat K inhibitor and”, “a […]” for “a Cat K enzyme solution”, “inhibitor complex; 40 μL of” for “inhibitor complex; 30 μL of”, “a Cat S substrate solution” for “a Cat K substrate solution”
(§2) The screening method was the same as above, the concentrations of the test compounds were set between 0.1 nM and 10 μM, 4-5 concentrations were selected for detection, IC50 curves were drawn, and IC50 values were calculated.

Cathepsin B = Cathepsin B (Homo sapiens (Human), UniProt P07858); test: Screening of Cathepsin B, fluorescence; format: biochemical; conditions: >> inhibition rate did not exceed 20% at test concentration; > greater than 35%; ≈ about 50%; < less than 50%
Procedure: as §1, with “10 μL” for “20 μL”, “Cat B” for “Cat K”, “complex; 40” for “complex; 30”
as §2

RAW264.7 cells = test: Osteoclast differentiation of RAW264.7 cells induced by RANKL, TRAP staining; format: cell-based; conditions: for osteoclastogenesis compared with model group (in words): K29 at 1 μM and 10 μM, K31 at 100 nM and 500 nM
Procedure: RAW264.7 cells were inoculated at a density of 1×10^5/well in 96-well plates and cultured in DMEM containing 10% fetal bovine serum and 1% penicillin/streptomycin. The cells were cultured in a constant-temperature incubator containing 5% CO2 at 37° C. 100 ng/mL of a RANKL inducing solution was added into each well of the administration groups and a model group to culture osteoclasts, the solution (containing RANKL) was changed every 2-3 days, inhibitor working solutions with different concentrations were added into the administration groups after the solution was changed for the 3rd time, a PBS working solution with the same volume was added into the model group, and the cells were continuously cultured for 24 h; and in the control group, the RANKL inducing solution and the inhibitor working solution were not added, and the PBS working solution with the same total volume was added. A culture supernatant was removed, the cells were rinsed 3 times with PBS and stained with a TRAP staining kit, and the multinucleated osteoclasts were observed under an optical microscope and counted.

[1] = set-up: species or system SD rats; conditions: rat, in vivo
Procedure: • Chromatographic column: […] Electrospray ionization (ESI); ion spray voltage: 3,500 V; ion source temperature: 300° C.; auxiliary gas: 45 Arb; and sheath gas: 10 Arb. • Intravenous intraperitoneal administration solution: prepared with 0.5% HS-15 normal saline solution with the concentration of 0.2 mg/mL; and • intragastric administration suspension: ground and suspended with 0.5% CMC-Na aqueous solution with the concentration of 0.5 mg/mL. Each administration was tested using 2 SD rats per compound. The two compounds […] were subjected to intravenous injection and intragastric administration respectively. […] All blood samples were anticoagulated by heparin and centrifuged for 10 min at 4,000 g. The supernatant plasma was taken for cryopreservation to be tested. 50 μL of the plasma sample was taken, 150 μL of acetonitrile was added, the mixture was evenly mixed by vortex and centrifuged at 9,100 g for 10 min, and a supernatant was taken and 2 μL of the supernatant was injected and detected on a machine.

Sequence of Cathepsin K (P43235 115-329): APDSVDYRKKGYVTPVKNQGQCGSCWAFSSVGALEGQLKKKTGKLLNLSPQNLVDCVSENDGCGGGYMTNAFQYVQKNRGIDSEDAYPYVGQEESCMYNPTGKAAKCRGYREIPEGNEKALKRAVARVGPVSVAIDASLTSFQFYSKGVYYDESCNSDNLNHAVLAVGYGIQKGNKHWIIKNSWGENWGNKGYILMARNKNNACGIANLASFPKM

CN1CCN(c2ccc(-c3ccc(CN(CC4CCCCC4)c4nccc(C#N)n4)cc3)cc2)CC1 [Compound K15, 2-[(cyclohexylmethyl) ({4-[4-(4-methylpiperazin-1-yl)phenyl]phenyl}methyl)amino]pyrimidine-4-carbonitrile]
IC50 (Cathepsin K): < 10 nM | IC50 (Cathepsin K; stated in text): < 10 nM | Cat S/K ratio of inhibitory activities (Cathepsin S): ≈7,460 | Cat B/K ratio of inhibitory activities (Cathepsin B): >15,000

COc1cccc2c3c([nH]c12)CCN(C(=O)[C@@H]1CCCC[C@H]1C(=O)N[C@H]1COCC1=O)C3 [Compound K29, (1R,2R)-2-(6-methoxy-2,3,4,5-tetrahydro-1H-pyrido[4,3-b]indole-2-carbonyl)-N—(S)-(4-oxotetrahydrofuran-3-yl)-cyclohexane-1-carboxamide]
Number of osteoclasts (RAW264.7 cells; 1 μM): 13 | Number of osteoclasts (RAW264.7 cells; 10 μM): 11.25 | osteoclastogenesis (in words) (RAW264.7 cells; 10 μM): obviously inhibited the osteoclastogenesis | osteoclastogenesis compared with model group (in words) (RAW264.7 cells): tendency to inhibit osteoclastogenesis | F [1]: 62.1% | Tmax ([1]; iv, 1 mg/kg): 1.98 min | Bioavailability % ([1]; po): 62.1% | CLz ([1]; po): 26.7 mL/min/kg | Cmax ([1]; po): 1,285 ng/mL | Tmax ([1]; po): 15 min | Vz ([1]; po): 3.83 L/kg | t1/2z ([1]; po): 99 min | Tmax ([1]; po, 5 mg/kg): 15 min

CN1CCN(c2ccc(CN(CC(C)(C)C)c3nccc(C#N)n3)cc2)CC1 [Compound K1, 2-[(2,2-dimethylpropyl){[4-(4-methylpiperazin-1-yl)phenyl]methyl}amino]pyrimidine-4-carbonitrile]
IC50 (Cathepsin K): 10 to 100 nM | IC50 (Cathepsin K; stated in text): < 100 nM | Cat S/K ratio of inhibitory activities (Cathepsin S): >800 | Cat B/K ratio of inhibitory activities (Cathepsin B): >1,600

CC(C)(C)CN(Cc1ccc(-c2ccc(C#N)s2)cc1)c1nccc(C#N)n1 [Compound K7, 2-({[4-(5-cyanothiophen-2-yl)phenyl]methyl}(2,2-dimethylpropyl)amino)pyrimidine-4-carbonitrile]
IC50 (Cathepsin K): 100 to 500 nM

Cc1ccc(-c2ccc(CN(CC(C)(C)C)c3nccc(C#N)n3)cc2)s1 [Compound K10, 2-[(2,2-dimethylpropyl){[4-(5-methylthiophen-2-yl)phenyl]methyl}amino]pyrimidine-4-carbonitrile]
IC50 (Cathepsin K): 100 to 500 nM

CC(C)(F)C[C@H](N[C@@H](c1ccc(-c2ccc(S(C)(=O)=O)cc2)cc1)C(F)(F)F)C(=O)NC1(C#N)CC1 [Odanacatib, reference compound]
Cat S/K ratio of inhibitory activities (Cathepsin S): <290 | Cat B/K ratio of inhibitory activities (Cathepsin B): >590

COc1cc(F)cc2c3c([nH]c12)CCN(C(=O)[C@@H]1CCCC[C@H]1C(=O)N[C@H]1COCC1=O)C3 [Compound K31, (1R,2R)-2-(8-fluoro-6-methoxy-2,3,4,5-tetrahydro-1H-pyrido[4,3-b]indole-2-carbonyl)-N—(S)-(4-oxotetrahydrofuran-3-yl)-cyclohexane-1-carboxamide]
Number of osteoclasts (RAW264.7 cells; 100 nM): 13.25 | Number of osteoclasts (RAW264.7 cells; 500 nM): 14 | osteoclastogenesis compared with model group (in words) (RAW264.7 cells): tendency to inhibit osteoclastogenesis | F [1]: 51.0% | Tmax ([1]; iv, 1 mg/kg): 1.98 min | Bioavailability % ([1]; po): 51.0% | CLz ([1]; po): 27.8 mL/min/kg | Cmax ([1]; po): 936 ng/mL | Tmax ([1]; po): 15 min | Vz ([1]; po): 4.38 L/kg | t1/2z ([1]; po): 109 min | Tmax ([1]; po, 5 mg/kg): 15 min

CS(=O)(=O)c1ccc(-c2ccc(CN(CC3CCCCC3)c3nccc(C#N)n3)cc2)cc1 [Compound K16, 2-[(cyclohexylmethyl) ({4-[4-(methylsulfonyl)phenyl]phenyl}methyl)amino]pyrimidine-4-carbonitrile]
IC50 (Cathepsin K): 100 to 500 nM | Cat S/K ratio of inhibitory activities (Cathepsin S): >>3,300 | Cat B/K ratio of inhibitory activities (Cathepsin B): >>3,300

CC(C)(C)CN(Cc1ccc(-c2ccc(S(C)(=O)=O)cc2)cc1)c1nccc(C#N)n1 [Compound K6, 2-[(2,2-dimethylpropyl) ({4-[4-(methylsulfonyl)phenyl]phenyl}methyl)amino]pyrimidine-4-carbonitrile]
IC50 (Cathepsin K): 100 to 500 nM | Cat S/K ratio of inhibitory activities (Cathepsin S): >>3,300 | Cat B/K ratio of inhibitory activities (Cathepsin B): >>3,300

O=C1COCC1NC(=O)[C@@H]1CCCC[C@H]1C(=O)N1CCc2c([nH]c3c(F)cccc23)C1 (stereo partly drawn) [Compound K19, (1R,2R)-2-(8-fluoro-2,3,4,9-tetrahydro-1H-pyrido[3,4-b]indole-2-carbonyl)-N-(4-oxotetrahydrofuran-3-yl)cyclohexane-1-carboxamide]
IC50 (Cathepsin K): 10 to 100 nM

CC(C)(C)CN(Cc1ccc(-c2ccccc2)cc1)c1nccc(C#N)n1 [Compound K2, 2-[(2,2-dimethylpropyl)[(4-phenylphenyl)methyl]amino]pyrimidine-4-carbonitrile]
IC50 (Cathepsin K): 100 to 500 nM | Cat S/K ratio of inhibitory activities (Cathepsin S): >>2,100 | Cat B/K ratio of inhibitory activities (Cathepsin B): >>2,100

CN1CCN(c2ccc(-c3ccc(CN(CC(C)(C)C)c4nccc(C#N)n4)cc3)cc2)CC1 [Compound K13, 2-[(2,2-dimethylpropyl) ({4-[4-(4-methylpiperazin-1-yl)phenyl]phenyl}methyl)amino]pyrimidine-4-carbonitrile]
IC50 (Cathepsin K): < 10 nM | IC50 (Cathepsin K; stated in text): < 10 nM

CC(C)(C)CN(Cc1ccc(-c2cscn2)cc1)c1nccc(C#N)n1 [Compound K17, 2-(neopentyl(4-(thiazol-4-yl)benzyl)amino)pyrimidine-4-carbonitrile]
IC50 (Cathepsin K): 100 to 500 nM
